The record followed here is ChEMBL document CHEMBL4184220, “Identification of novel plasminogen activator inhibitor-1 inhibitors with improved oral bioavailability: Structure optimization of N-acylanthranilic acid derivatives” (Bioorg Med Chem Lett, 2018).

Data set [1] is described as follows: Cmax in Wistar rat at 5 mg/kg, po administered as single dose measured after 1 to 24 hrs by reverse-phase HPLC method. It is filed as ADME, organism-based. Also noted: dose 5 mg/kg, route oral. Particulars: in vivo.
Data set [2] can be described thus: Tmax in Wistar rat at 5 mg/kg, po administered as single dose measured after 1 to 24 hrs by reverse-phase HPLC method. It is filed as ADME, organism-based. Particulars: in vivo.
Data set [3] can be described thus: Half life in Wistar rat at 5 mg/kg, po administered as single dose measured after 1 to 24 hrs by reverse-phase HPLC method. Particulars: in vivo.
Data set [4] in a line: Half life in Wistar rat at 50 mg/kg, po administered as single dose measured after 1 to 24 hrs by reverse-phase HPLC method. Particulars: in vivo.
The nature of data set [5]: Tmax in Wistar rat at 50 mg/kg, po administered as single dose measured after 1 to 24 hrs by reverse-phase HPLC method. It counts as ADME, organism-based. Particulars: in vivo.
A short description of data set [6]: Cmax in Wistar rat at 50 mg/kg, po administered as single dose measured after 1 to 24 hrs by reverse-phase HPLC method. It is filed as ADME, organism-based. Also noted: dose 50 mg/kg, route oral. The note with it: in vivo.
Data set [7] addresses Plasminogen activator inhibitor 1 (Homo sapiens, UniProt P05121). The experiment in a line: Inhibition of human PAI-1 assessed as remaining enzyme activity by measuring p-nitroaniline release pre-incubated for 15 mins before 9.8 nM human tPA substrate addition for 15 mins using 24.5 nM enzyme and chromogenic substrate S-2288 by spectrophotometry.

pIC50: −log10 of the molar value. Where only a bound is given, the exact number is not on record here.

Plasminogen activator inhibitor 1, sequence (P05121 whole entry): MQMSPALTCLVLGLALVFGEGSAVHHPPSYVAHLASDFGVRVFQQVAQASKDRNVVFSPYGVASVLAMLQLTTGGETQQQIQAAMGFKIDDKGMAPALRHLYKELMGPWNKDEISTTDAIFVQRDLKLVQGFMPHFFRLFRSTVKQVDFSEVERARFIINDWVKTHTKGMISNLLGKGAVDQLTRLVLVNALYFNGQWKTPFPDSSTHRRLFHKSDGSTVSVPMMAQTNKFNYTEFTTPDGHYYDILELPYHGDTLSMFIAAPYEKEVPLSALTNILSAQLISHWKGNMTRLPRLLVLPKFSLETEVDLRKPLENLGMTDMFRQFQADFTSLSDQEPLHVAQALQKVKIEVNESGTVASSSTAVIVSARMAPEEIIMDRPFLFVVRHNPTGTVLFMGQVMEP

Consider `COc1cccc(-c2ccc(C)c(NC(=O)COCC(=O)Nc3ccc(Cl)cc3C(=O)O)c2)c1`, for which the peak concentration (Cmax) in data set [1] was 9.4 µM. Moreover, the Tmax in data set [2] came to 2 h. The same compound showed a half-life in data set [3] of 1.5 h.
With `Cc1ccc(-c2ccc(F)cc2)cc1NC(=O)COCC(=O)Nc1ccc(Cl)cc1C(=O)O`, the half-life in data set [4] is 1.8 h. For the same compound, the Tmax in data set [5] was 1 h. Further, in data set [6], the Cmax came out at 92.7 µM.
For `COc1ccccc1-c1ccc(C)c(NC(=O)COCC(=O)Nc2ccc(Cl)cc2C(=O)O)c1`, the peak concentration (Cmax) in data set [1] amounted to 2.08 µM. In data set [2], the Tmax amounted to 2 h. This compound also gave a half-life in data set [3] of 2.5 h.
Take `CC(=O)Nc1ccc(-c2ccc(C)c(NC(=O)COCC(=O)Nc3ccc(Cl)cc3C(=O)O)c2)cc1`: the half-life in data set [4] was 1.4 h. The time of peak concentration (Tmax) in data set [5] amounted to 2 h. Also, in data set [6], the highest level (Cmax) was 0.32 µM.
`O=C(COCC(=O)Nc1ccc(Cl)cc1C(=O)O)Nc1ccc(-c2ccoc2)cc1`: in data set [1], the highest level (Cmax) was 17.6 µM. Moreover, the Tmax in data set [2] came to 2 h. In data set [3], this compound showed a half-life of 4.2 h.
As to `O=C(COCC(=O)Nc1ccc(Cl)cc1C(=O)O)Nc1cccc(-c2ccncc2)c1`, in data set [4], the half-life was over 18 h. Also, the Tmax in data set [5] worked out at 6 h. The compound also returned a maximum concentration (Cmax) in data set [6] of 18 µM.
For the compound `O=C(COCC(=O)Nc1ccc(Cl)cc1C(=O)O)Nc1cccc(C(F)(F)F)c1`, in data set [4], the half-life was 0.8 h. Further, the Tmax in data set [5] amounted to 1 h. Moreover, in data set [6], the highest level (Cmax) was 58.6 µM.
The matching figures for `O=C(COCC(=O)Nc1ccc(Cl)cc1C(=O)[O-])Nc1cccc(-c2ccccn2)c1.[Na+]`: 2.4 h, 1 h and 136 µM.
In turn, `O=C(COCC(=O)N1CCN(C(c2ccccc2)c2ccccc2)CC1)Nc1ccc(Cl)cc1C(=O)O` had a half-life in data set [4] of 2.5 h. Further, the negative-log IC50 (pIC50) in data set [7] is 5.10. Also, the Tmax in data set [5] is 2 h. The compound also returned a maximum concentration (Cmax) in data set [6] of 34.2 µM.
`COc1ccc(-c2ccc(C)c(NC(=O)COCC(=O)Nc3ccc(Cl)cc3C(=O)O)c2)cc1` registered a Cmax in data set [1] of 2.2 µM. In data set [2], the Tmax was determined as 2 h. Moreover, the half-life in data set [3] was 1 h.
The matching figures for `O=C(COCC(=O)Nc1ccc(Cl)cc1C(=O)O)Nc1cccc(-c2ccco2)c1`: 11.5 µM, 2 h and 4 h.
The matching figures for `CCN(C(=O)COCC(=O)Nc1ccc(Cl)cc1C(=O)O)c1cc(-c2ccc(F)cc2)ccc1C`: 0.82 µM, 1 h and 0.9 h.
`Cn1cc(-c2cccc(NC(=O)COCC(=O)Nc3ccc(Cl)cc3C(=O)O)c2)cn1`: the half-life in data set [4] was 9.9 h. For the same compound, the Tmax in data set [5] came out at 2 h. This compound also had a Cmax in data set [6] of 20.5 µM.
